According to patent publication US11666577B2 (National Institute of Biological Sciences, Beijing, priority 2018, dated 2023):
Like-named read-outs stand apart in the source and are kept apart here.

What was measured:
[1] = system: HT-29 cells; assay: Necroptosis assay (TNF-α/Smac mimetic/z-VAD, TSZ-induced) in HT-29 cells; format: cell-based, human; details: read-out: EC50 (nM), potency in TSZ-induced necroptosis assays in HT-29 cells
Method in brief: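 HT-29 cells were challenged with 20 ng/ml TNF-α, 100 nM Smac mimetic and 20 mM z-VAD while compound was added at the same time (library screen at 10 mM). After 24 h, viability was read as ATP luminescence (CellTiter-Glo) and normalized to DMSO-treated cells; values are means ± SD of duplicates.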

[2] = system: pMLKL; assay: Immunofluorescence staining of pMLKL in HT-29 cells; format: cell-based, human; details: monoclonal anti-pMLKL antibody, Experimental-section numbering
From the text: This is a crucial step in the translocation of MLKL from the cytoplasm to the cell membrane, where it mediates ion influx and/or causes the disruption of cell structures.^[5] To evaluate the mechanism of this series of compounds on MLKL, we detected the status (state of oligomerization and phosphorylation) of MLKL under TSZ stimulation in the presence of compound 12 or 15. […] Next, we evaluated the effects of MLKL inhibitors on the translocation of MLKL from the cytoplasm to the cell membrane. HT-29 cells were treated with TSZ in the presence of RIPA-56, NSA, compound 12, or compound 15 for 6 h. The proteins from cell lysates were separated and the soluble phase and membrane phase were analyzed separately with anti-MLKL and anti-pMLKL antibodies. […] We also performed immunofluorescence staining in HT-29 cells using a monoclonal anti-pMLKL antibody. After TSZ stimulation, large, bright-green fluorescent dots (pMLKL) were present in the plasma membrane. […] Sun, X. Wang, Trends Biochem. Sci 2014, 39, 587-593; bM. Pasparakis, P. Vandenabeele, Nature 2015, 517, 311-320. • 2. N. Holler, R. Zaru, O. Micheau, M. Thome, A. Attinger, S. Valitutti, J.-L. Bodmer, P. Schneider, B. Seed, J. Tschopp, Nat. Immunol. 2000, 1, 489-495. • 3. aS. He, L. Wang, L. Miao, T. Wang, F. Du, L. Zhao, X. Wang, Cell 2009, 137, 1100-1111; bD.-W. Zhang, J. Shao, J. Lin, N. Zhang, B.-J. Lu, S.-C. Lin, M.-Q. Dong, J. Han, Science 2009, 325, 332-336. • 4. L. Sun, H. et al. Cell 2012, 148, 213-227. • 5. aH. Wang, L. Sun, L. Su, J. Rizo, L. Liu, L.-F. Wang, F.-S. Wang, X. Wang, Mol. Cell 2014, 54, 133-146; bZ. Cai, S. Jitkaew, J. Zhao, H.-C. Chiang, S. Choksi, J. Liu, Y. Ward, L.-g. Wu, Z.-G. Liu, Nat. Cell Biol. 2014, 16, 55-65. • 6. aJ. Wu, et al., Cell Res. 2013, 23, 994-1006; bD. Ofengeim, Y. Ito, A. Najafov, Y. Zhang, B. Shan, J. P. DeWitt, J. Ye, X. Zhang, A. Chang, H. Vakifahmetoglu-Norberg, Cell reports 2015, 10, 1836-1849; cM. Pierdomenico, A. Negroni, L. Stronati, R. Vitali, E. Prete, J. Bertin, P. J. Gough, M. Aloi, S. Cucchiara, Am J. Gastroenterol. 2014, 109, 279-287. • 7. […]

[3] = molecular target: T1, RIP1 (Homo sapiens, UniProt Q13546); assay: RIP1 kinase activity enzymatic assay; format: biochemical
T1 sequence (Q13546 1-671): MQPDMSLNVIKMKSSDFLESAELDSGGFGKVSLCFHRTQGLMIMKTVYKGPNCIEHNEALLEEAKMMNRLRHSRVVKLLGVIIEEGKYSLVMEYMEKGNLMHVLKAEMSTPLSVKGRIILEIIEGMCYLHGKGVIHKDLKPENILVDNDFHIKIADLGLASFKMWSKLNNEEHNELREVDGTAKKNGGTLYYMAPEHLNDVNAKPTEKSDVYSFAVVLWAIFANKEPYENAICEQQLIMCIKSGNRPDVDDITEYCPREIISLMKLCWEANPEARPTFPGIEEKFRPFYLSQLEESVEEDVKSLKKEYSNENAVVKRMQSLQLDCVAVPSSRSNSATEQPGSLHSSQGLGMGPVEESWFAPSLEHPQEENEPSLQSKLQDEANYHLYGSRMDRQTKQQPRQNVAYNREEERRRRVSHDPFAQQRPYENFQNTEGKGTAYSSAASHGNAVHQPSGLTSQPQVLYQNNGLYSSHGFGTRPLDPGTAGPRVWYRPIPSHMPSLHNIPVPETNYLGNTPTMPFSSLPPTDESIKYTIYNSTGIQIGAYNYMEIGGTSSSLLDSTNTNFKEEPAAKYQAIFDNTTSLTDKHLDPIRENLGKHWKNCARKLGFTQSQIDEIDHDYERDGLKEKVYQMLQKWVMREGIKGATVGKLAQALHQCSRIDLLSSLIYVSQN
Protocol: (§1) To determine whether the direct target of this series of compounds is MLKL, we performed activity based protein profiling (ABPP). Compound 12, an affinity probe, was incubated with MLKL-flag-HT-29 cell lysates for 2 hours, followed by a click reaction to conjugate the probe to a biotin-tag. The biotin-labeled compound-protein complexes were pulled down and analysed via SDS-PAGE.

[4] = molecular target: RIP3 (Homo sapiens, UniProt Q9Y572); assay: RIP3 kinase activity enzymatic assay; format: biochemical
Protocol: as §1

[5] = molecular target: VEGFR2 (Homo sapiens, UniProt P35968); details: cited from earlier work
Chain of VEGFR2 (P35968 20-1356, species assumed): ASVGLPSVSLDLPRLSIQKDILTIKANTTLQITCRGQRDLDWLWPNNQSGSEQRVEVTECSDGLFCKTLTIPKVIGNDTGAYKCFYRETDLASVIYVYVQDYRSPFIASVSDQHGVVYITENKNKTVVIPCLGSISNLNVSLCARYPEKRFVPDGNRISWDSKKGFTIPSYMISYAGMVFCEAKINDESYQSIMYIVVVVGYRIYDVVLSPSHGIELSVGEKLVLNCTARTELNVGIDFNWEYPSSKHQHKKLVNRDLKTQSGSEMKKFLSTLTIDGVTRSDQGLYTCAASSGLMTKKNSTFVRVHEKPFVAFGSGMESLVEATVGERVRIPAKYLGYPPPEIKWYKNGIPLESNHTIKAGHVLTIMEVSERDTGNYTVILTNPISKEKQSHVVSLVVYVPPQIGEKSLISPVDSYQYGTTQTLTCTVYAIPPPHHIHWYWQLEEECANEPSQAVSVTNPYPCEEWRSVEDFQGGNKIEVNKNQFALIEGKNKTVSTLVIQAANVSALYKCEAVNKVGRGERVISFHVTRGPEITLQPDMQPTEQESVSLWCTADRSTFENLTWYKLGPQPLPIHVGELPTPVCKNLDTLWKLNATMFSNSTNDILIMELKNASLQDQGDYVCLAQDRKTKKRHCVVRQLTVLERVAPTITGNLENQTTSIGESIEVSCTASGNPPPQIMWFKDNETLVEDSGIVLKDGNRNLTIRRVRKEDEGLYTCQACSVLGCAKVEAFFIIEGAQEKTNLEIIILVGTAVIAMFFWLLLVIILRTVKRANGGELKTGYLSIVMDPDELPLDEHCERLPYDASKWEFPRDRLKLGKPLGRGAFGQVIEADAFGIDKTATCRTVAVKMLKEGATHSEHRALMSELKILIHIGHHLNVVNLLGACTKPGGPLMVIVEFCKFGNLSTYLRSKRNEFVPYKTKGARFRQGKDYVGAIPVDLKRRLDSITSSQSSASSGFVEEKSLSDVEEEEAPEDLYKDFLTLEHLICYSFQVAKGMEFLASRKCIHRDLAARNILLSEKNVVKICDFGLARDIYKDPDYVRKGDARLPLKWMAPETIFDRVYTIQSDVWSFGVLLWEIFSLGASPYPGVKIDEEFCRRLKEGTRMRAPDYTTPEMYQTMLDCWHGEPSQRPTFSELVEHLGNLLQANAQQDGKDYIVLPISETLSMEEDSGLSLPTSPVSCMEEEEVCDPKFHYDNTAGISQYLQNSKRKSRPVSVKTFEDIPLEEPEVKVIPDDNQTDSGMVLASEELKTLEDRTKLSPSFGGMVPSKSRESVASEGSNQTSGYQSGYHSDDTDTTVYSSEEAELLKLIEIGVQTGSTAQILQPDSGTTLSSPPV

Chain of RIP3 (Q9Y572 whole entry): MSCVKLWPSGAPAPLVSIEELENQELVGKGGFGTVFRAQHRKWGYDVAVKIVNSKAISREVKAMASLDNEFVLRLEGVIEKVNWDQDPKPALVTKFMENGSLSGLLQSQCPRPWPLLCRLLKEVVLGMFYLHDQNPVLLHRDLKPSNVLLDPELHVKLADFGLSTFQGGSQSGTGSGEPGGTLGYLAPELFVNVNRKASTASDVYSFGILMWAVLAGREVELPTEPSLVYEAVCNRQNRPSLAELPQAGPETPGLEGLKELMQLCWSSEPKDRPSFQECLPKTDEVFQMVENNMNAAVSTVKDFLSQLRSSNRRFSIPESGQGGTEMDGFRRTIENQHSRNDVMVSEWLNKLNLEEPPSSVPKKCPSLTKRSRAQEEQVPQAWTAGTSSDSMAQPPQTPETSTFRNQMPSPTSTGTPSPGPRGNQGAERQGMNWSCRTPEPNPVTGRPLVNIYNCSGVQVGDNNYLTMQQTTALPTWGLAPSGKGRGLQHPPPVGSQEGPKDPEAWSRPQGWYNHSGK

SMILES	EC50 ([1]; Experimental-section numbering (compound 1 = Series 1 compound 4), necroptosis induced for 24 h, mean of at least three independent analyses)	pMLKL immunofluorescence after TSZ stimulation [2]	EC50 ([1]; Homo sapiens, HT-29, 24 h)	off-target activity against RIP1 [3]	off-target activity against RIP3 [4]	off-target activity against other kinases, including VEGFR2 [5]
COc1nccnc1NS(=O)(=O)c1ccc(NC(=O)/C=C/c2ccc([N+](=O)[O-])s2)cc1 [NSA, necrosulfonamide, reference compound]	447 ± 32 nM	small pMLKL dots were dispersed in the cytoplasm	–	–	–	–
CCC(C)(C)C(=O)N(O)Cc1ccccc1 [RIPA-56]	–	blocked the phosphorylation of MLKL completely	–	–	–	–
CN(c1ccc(NC(=O)Nc2ccc(OC(F)(F)F)cc2)cc1)c1ccnc(Nc2cccc(S(N)(=O)=O)c2)n1 [GW806742X]	–	blocked the phosphorylation of MLKL completely	589 ± 12 nM	off-target activities	off-target activities	off-target activity
